US10941152B2, “Pyrazole compounds as modulators of FSHR and uses thereof” (TOCOPHERX, INC., priority 2014, dated 2021)

Legend:
FSHR = target: T1, FSHR (Homo sapiens, UniProt P23945); assay: EC50 of cyclic AMP production in CHO FSHR cells + EC20 FSH (Assay A); assay type: cell-based; conditions: cyclic AMP production in CHO FSHR cells + EC20 FSH (0.265 pM), HTRF
T1 construct: expressed in transfected cells; host or cells: CHO (Cho-FSHR-LUC-1-1-43)
T1 sequence (P23945 18-695): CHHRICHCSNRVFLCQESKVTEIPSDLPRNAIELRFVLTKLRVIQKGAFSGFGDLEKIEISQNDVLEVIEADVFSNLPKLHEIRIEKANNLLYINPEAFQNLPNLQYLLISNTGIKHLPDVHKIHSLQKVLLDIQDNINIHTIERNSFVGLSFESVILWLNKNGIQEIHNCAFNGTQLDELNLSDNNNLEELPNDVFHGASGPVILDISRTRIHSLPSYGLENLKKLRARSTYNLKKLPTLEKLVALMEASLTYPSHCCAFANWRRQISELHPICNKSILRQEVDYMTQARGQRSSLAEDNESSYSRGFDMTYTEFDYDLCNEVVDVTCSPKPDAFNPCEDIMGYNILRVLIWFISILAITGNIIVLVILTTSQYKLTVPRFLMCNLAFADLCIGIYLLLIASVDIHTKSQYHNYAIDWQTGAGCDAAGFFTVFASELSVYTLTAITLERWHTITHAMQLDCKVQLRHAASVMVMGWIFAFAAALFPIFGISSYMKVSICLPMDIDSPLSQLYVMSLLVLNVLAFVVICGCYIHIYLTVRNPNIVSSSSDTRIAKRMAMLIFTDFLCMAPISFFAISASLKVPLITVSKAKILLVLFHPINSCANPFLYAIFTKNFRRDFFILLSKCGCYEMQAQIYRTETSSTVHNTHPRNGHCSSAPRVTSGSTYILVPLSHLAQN
Summary of the method: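 cAMP was detected by HTRF as the 665/620 nm ratio. The CHO-FSHR cells had first been exposed for 1 h at 37° C to test compound together with 0.265 pM FSH (EC20) and 200 μM IBMX. Responses are given as percent of the FSH standard maximum.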

[1] = target: T2, follicle-stimulating hormone (FSH) receptor (Rattus norvegicus, UniProt P20395); assay: Rat granulosa EC50 FSH (Assay B); assay type: cell-based
T2 construct: endogenous in cells; host or cells: rat granulosa cells
T2 sequence (P20395 18-692): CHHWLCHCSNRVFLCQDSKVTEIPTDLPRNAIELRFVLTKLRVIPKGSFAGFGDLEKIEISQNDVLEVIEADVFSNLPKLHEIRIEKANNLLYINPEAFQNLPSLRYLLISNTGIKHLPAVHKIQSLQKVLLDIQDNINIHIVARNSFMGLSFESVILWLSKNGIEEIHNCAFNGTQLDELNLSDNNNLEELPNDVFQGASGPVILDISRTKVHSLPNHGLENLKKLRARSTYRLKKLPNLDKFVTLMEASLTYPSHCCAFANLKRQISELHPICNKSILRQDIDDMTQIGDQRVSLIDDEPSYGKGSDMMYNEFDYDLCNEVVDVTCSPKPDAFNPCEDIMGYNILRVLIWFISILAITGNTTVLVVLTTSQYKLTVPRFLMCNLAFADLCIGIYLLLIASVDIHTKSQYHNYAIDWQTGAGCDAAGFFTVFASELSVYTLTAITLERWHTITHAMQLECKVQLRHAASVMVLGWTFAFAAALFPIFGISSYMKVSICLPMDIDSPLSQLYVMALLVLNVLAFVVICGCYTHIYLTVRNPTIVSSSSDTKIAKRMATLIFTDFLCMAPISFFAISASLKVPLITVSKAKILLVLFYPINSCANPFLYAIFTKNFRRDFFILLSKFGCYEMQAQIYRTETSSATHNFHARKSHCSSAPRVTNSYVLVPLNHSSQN
Procedure: Example 25. Rat granulosa EC50 FSH (Assay B)
The assay was performed pursuant to the teaching of Yanofsky et al. (2006) Allosteric activation of the follicle-stimulating hormone (FSH) receptor by selective, nonpeptide agonists (JBC 281(19): 13226-13233, which is incorporated by reference in the disclosure of the invention).

SMILES	EC50 (FSHR) [nM]	EC50 [1] [nM]
COc1cc2c(cc1-c1ccccn1)-c1c(c(C(=O)N(C)C(C)(C)C)nn1-c1ccsc1)CO2 [Compound 58, N-tert-butyl-7-methoxy-N-methyl-8-(pyridin-2-yl)-1-(thiophen-3-yl)-1,4-dihydrochromeno[4,3-c]pyrazole-3-carboxamide]	10 to 100	> 500
COc1cc2c(cc1-c1cncc(C)c1)-c1c(c(C(=O)N(C)C(C)(C)C)nn1-c1ccsc1)CO2 [Compound 59, N-tert-butyl-7-methoxy-N-methyl-8-(5-methylpyridin-3-yl)-1-(thiophen-3-yl)-1,4-dihydrochromeno[4,3-c]pyrazole-3-carboxamide]	10 to 100	> 500
COc1cc2c(cc1-c1cccnc1Cl)-c1c(c(C(=O)N(C)C(C)(C)C)nn1-c1ccsc1)CO2 [Compound 60, N-tert-butyl-8-(2-chloropyridin-3-yl)-7-methoxy-N-methyl-1-(thiophen-3-yl)-1,4-dihydrochromeno[4,3-c]pyrazole-3-carboxamide]	< 10	101 to 500
COc1cc2c(cc1-c1cccnc1F)-c1c(c(C(=O)N3CCOCC3(C)C)nn1-c1ccsc1)CO2 [Compound 61, (3,3-dimethylmorpholino)(8-(2-fluoropyridin-3-yl)-7-methoxy-1-(thiophen-3-yl)-1,4-dihydrochromeno[4,3-c]pyrazol-3-yl)methanone]	< 10	10 to 100
COc1cc2c(cc1-c1cc(C)cnc1F)-c1c(c(C(=O)N(C)C(C)(C)C)nn1-c1ccsc1)CO2 [Compound 62, N-tert-butyl-8-(2-fluoro-5-methylpyridin-3-yl)-7-methoxy-N-methyl-1-(thiophen-3-yl)-1,4-dihydrochromeno[4,3-c]pyrazole-3-carboxamide]	< 10	10 to 100
COc1cc2c(cc1-c1ccccc1F)-c1c(c(C(=O)N(C)C(C)(C)C)nn1-c1ccsc1)CO2 [Compound 63, N-tert-butyl-8-(2-fluorophenyl)-7-methoxy-N-methyl-1-(thiophen-3-yl)-1,4-dihydrochromeno[4,3-c]pyrazole-3-carboxamide]	10 to 100	101 to 500
COc1cc2c(cc1-c1cc(C(N)=O)ncc1F)-c1c(c(C(=O)N3CCOCC3(C)C)nn1-c1cc(F)cc(F)c1)CO2 [Compound 72, 4-(1-(3,5-difluorophenyl)-3-(3,3-dimethylmorpholine-4-carbonyl)-7-methoxy-1,4-dihydrochromeno[4,3-c]pyrazol-8-yl)-5-fluoropicolinamide]	< 10	10 to 100
COc1cc(F)cc(-n2nc(C(=O)N3CCOCC3(C)C)c3c2-c2cc(-c4cnn(CC(N)=O)c4)c(OC)cc2OC3)c1 [Compound 73, 2-(4-(3-(3,3-dimethylmorpholine-4-carbonyl)-1-(3-fluoro-5-methoxyphenyl)-7-methoxy-1,4-dihydrochromeno[4,3-c]pyrazol-8-yl)-1H-pyrazol-1-yl)acetamide]	< 10	101 to 500
COc1cc(F)cc(-n2nc(C(=O)N3CCOCC3(C)C)c3c2-c2cc(-c4cnn(CCO)c4)c(OC)cc2OC3)c1 [Compound 74, (3,3-dimethylmorpholino)(1-(3-fluoro-5-methoxyphenyl)-8-(1-(2-hydroxyethyl)-1H-pyrazol-4-yl)-7-methoxy-1,4-dihydrochromeno[4,3-c]pyrazol-3-yl)methanone]	< 10	10 to 100
COc1cc2c(cc1-c1cc(CO)ncc1F)-c1c(c(C(=O)N(C)C(C)(C)C)nn1-c1cc(F)cc(F)c1)CO2 [Compound 75, N-tert-butyl-1-(3,5-difluorophenyl)-8-(5-fluoro-2-(hydroxymethyl)pyridin-4-yl)-7-methoxy-N-methyl-1,4-dihydrochromeno[4,3-c]pyrazole-3-carboxamide]	10 to 100	10 to 100

Results, then the compound that gave them:

EC50 (FSHR) [nM]	EC50 [1] [nM]	SMILES
10 to 100	101 to 500	COc1cc2c(cc1-c1ccn(C)n1)-c1c(c(C(=O)N(C)C(C)(C)C)nn1-c1cc(Cl)cc(C(F)(F)F)c1)CO2 [Compound 64, N-tert-butyl-1-(3-chloro-5-(trifluoromethyl)phenyl)-7-methoxy-N-methyl-8-(1-methyl-1H-pyrazol-3-yl)-1,4-dihydrochromeno[4,3-c]pyrazole-3-carboxamide]
< 10	10 to 100	COC(=O)c1cc(-c2cc3c(cc2OC)OCc2c(C(=O)N(C)C(C)(C)C)nn(-c4cc(F)cc(F)c4)c2-3)cnc1N [Compound 65, methyl 2-amino-5-(3-(tert-butyl(methyl)carbamoyl)-1-(3,5-difluorophenyl)-7-methoxy-1,4-dihydrochromeno[4,3-c]pyrazol-8-yl)nicotinate]
< 10	10 to 100	COc1cc2c(cc1-c1cncc(S(N)(=O)=O)c1)-c1c(c(C(=O)N(C)C(C)(C)C)nn1-c1cc(Cl)cc(Cl)c1)CO2 [Compound 66, N-tert-butyl-1-(3,5-dichlorophenyl)-7-methoxy-N-methyl-8-(5-sulfamoylpyridin-3-yl)-1,4-dihydrochromeno[4,3-c]pyrazole-3-carboxamide]
< 10	101 to 500	COc1cc2c(cc1-c1cnn(CC(N)=O)c1)-c1c(c(C(=O)N(C)C(C)(C)C)nn1-c1cc(Cl)cc(Cl)c1)CO2 [Compound 67, 8-(1-(2-amino-2-oxoethyl)-1H-pyrazol-4-yl)-N-tert-butyl-1-(3,5-dichlorophenyl)-7-methoxy-N-methyl-1,4-dihydrochromeno[4,3-c]pyrazole-3-carboxamide]
< 10	101 to 500	COc1cc2c(cc1-c1cc(C(N)=O)ncc1F)-c1c(c(C(=O)N(C)C(C)(C)C)nn1-c1cc(Cl)cc(Cl)c1)CO2 [Compound 68, N-tert-butyl-8-(2-carbamoyl-5-fluoropyridin-4-yl)-1-(3,5-dichlorophenyl)-7-methoxy-N-methyl-1,4-dihydrochromeno[4,3-c]pyrazole-3-carboxamide]
< 10	10 to 100	COc1cc2c(cc1-c1cnn(CC(N)=O)c1)-c1c(c(C(=O)N3CCOCC3(C)C)nn1-c1cc(F)cc(Cl)c1)CO2 [Compound 69, 2-(4-(1-(3-chloro-5-fluorophenyl)-3-(3,3-dimethylmorpholine-4-carbonyl)-7-methoxy-1,4-dihydrochromeno[4,3-c]pyrazol-8-yl)-1H-pyrazol-1-yl)acetamide]
< 10	10 to 100	COc1cc2c(cc1-c1cc(C(N)=O)ncc1F)-c1c(c(C(=O)N(C)C(C)(C)C)nn1-c1cc(F)cc(F)c1)CO2 [Compound 70, N-tert-butyl-8-(2-carbamoyl-5-fluoropyridin-4-yl)-1-(3,5-difluorophenyl)-7-methoxy-N-methyl-1,4-dihydrochromeno[4,3-c]pyrazole-3-carboxamide]
10 to 100	101 to 500	COc1cc2c(cc1-c1cnn(CC(N)=O)c1)-c1c(c(C(=O)N3CC[S+]([O-])CC3(C)C)nn1-c1cc(F)cc(F)c1)CO2 (centres unmarked) [Compound 71]
10 to 100	> 500	COc1cc2c(cc1-c1cnn(CCO)c1)-c1c(c(C(=O)N(C)C(C)(C)C)nn1-c1ccsc1)CO2 [Compound 76, N-tert-butyl-8-(1-(2-hydroxyethyl)-1H-pyrazol-4-yl)-7-methoxy-N-methyl-1-(thiophen-3-yl)-1,4-dihydrochromeno[4,3-c]pyrazole-3-carboxamide]
